These results are taken from ChEMBL document CHEMBL5653615 (J Biol Chem, 2013).

Each structure is given as a SMILES string.

The target in experiment [1] is T1, Discoidin domain-containing receptor 2 (Homo sapiens) (UniProt Q16832).
T1 sequence (whole entry): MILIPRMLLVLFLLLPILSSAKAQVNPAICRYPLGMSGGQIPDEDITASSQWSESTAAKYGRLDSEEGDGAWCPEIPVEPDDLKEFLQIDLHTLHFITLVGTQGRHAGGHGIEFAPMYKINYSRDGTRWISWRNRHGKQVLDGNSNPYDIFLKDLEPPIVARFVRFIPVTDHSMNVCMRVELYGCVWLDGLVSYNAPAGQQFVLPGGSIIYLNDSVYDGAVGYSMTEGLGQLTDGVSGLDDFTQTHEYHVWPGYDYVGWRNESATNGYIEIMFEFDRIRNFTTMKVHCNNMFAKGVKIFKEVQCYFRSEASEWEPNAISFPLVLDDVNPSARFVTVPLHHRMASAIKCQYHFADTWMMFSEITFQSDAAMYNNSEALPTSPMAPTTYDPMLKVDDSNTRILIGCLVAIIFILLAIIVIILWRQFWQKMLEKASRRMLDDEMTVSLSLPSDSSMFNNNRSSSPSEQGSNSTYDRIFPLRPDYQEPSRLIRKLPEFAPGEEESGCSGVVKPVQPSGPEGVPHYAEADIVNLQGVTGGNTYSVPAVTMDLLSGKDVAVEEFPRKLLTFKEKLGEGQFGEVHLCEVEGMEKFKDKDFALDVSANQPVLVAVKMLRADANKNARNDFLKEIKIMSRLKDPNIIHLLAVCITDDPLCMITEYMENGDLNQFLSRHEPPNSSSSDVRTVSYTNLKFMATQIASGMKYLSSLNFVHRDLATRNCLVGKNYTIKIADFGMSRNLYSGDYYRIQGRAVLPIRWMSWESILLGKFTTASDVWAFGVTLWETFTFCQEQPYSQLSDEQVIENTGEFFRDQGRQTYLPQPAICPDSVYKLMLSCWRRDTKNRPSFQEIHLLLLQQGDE
Nature of the experiment: Inhibition of human DDR2 at 18.6 nM by HotSpot assay relative to control.

Experiment [2] deals with T2, Ephrin type-B receptor 1 (Homo sapiens) (UniProt P54762).
T2 sequence (whole entry): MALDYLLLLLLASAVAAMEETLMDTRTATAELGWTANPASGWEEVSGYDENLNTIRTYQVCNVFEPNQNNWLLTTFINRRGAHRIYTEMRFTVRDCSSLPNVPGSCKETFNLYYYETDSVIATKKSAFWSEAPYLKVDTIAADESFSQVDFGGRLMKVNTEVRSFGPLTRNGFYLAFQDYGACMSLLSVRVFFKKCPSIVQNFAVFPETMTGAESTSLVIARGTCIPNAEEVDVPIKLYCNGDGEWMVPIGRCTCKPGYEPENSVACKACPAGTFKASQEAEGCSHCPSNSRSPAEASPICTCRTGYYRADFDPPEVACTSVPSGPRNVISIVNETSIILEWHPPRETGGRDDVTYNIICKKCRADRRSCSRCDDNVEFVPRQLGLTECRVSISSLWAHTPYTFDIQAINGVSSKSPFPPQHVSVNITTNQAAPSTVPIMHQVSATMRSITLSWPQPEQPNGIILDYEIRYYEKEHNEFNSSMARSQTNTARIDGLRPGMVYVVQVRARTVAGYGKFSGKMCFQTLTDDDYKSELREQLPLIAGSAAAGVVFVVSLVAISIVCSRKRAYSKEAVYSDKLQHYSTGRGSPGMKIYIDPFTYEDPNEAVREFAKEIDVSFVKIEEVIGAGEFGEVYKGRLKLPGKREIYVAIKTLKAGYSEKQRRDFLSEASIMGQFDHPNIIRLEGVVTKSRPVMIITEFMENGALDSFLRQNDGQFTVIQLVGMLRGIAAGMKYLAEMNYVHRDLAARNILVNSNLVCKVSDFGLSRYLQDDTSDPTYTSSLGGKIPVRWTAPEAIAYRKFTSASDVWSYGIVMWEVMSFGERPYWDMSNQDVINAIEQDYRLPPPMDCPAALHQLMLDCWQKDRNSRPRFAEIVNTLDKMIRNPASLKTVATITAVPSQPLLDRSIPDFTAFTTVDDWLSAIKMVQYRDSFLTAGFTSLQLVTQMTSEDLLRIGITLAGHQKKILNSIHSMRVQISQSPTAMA
Nature of the experiment: Inhibition of human EPHB1 at 18.6 nM by HotSpot assay relative to control.

Experiment [3] has as its target T3, Serine/threonine-protein kinase Nek3 (Homo sapiens) (UniProt P51956).
T3 sequence (whole entry): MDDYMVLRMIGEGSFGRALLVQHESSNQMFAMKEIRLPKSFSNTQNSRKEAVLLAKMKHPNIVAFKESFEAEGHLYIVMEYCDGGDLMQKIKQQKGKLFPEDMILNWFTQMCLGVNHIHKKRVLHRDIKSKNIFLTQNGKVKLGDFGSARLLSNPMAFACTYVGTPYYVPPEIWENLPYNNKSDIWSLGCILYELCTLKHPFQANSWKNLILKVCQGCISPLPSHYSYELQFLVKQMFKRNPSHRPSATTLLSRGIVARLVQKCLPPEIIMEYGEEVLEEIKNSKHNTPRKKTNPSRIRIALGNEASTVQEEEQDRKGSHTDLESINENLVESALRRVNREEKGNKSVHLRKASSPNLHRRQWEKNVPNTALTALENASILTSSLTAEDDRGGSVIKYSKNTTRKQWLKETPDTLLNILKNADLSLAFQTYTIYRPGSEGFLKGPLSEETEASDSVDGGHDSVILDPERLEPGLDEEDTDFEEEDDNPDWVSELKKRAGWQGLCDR
In words: Inhibition of human NEK3 at 18.6 nM by HotSpot assay relative to control.

The target in experiment [4] is Tyrosine-protein kinase Srms (Homo sapiens) (UniProt Q9H3Y6). Nature of the experiment: Inhibition of human SRMS at 18.6 nM by HotSpot assay relative to control.
For experiment [5], the target named is Homeodomain-interacting protein kinase 3 (Homo sapiens) (UniProt Q9H422). Nature of the experiment: Inhibition of human HIPK3 at 18.6 nM by HotSpot assay relative to control.
Experiment [6] concerns the target Serine/threonine-protein kinase Nek6 (Homo sapiens) (UniProt Q9HC98). Nature of the experiment: Inhibition of human NEK6 at 1.82 nM by HotSpot assay relative to control.
Experiment [7] addresses T1, Discoidin domain-containing receptor 2 (Homo sapiens). In words: Inhibition of human DDR2 at 1.82 nM by HotSpot assay relative to control.
The species named for a further experiment is Homo sapiens. Nature of the experiment: Inhibition of human TAO1 at 1.82 nM by HotSpot assay relative to control.
The target of experiment [8] is Serine/threonine-protein kinase 16 (Homo sapiens) (UniProt O75716). In words: Inhibition of human STK16 at 1.82 nM by HotSpot assay relative to control.
Experiment [9] addresses Tyrosine-protein kinase SYK (Homo sapiens) (UniProt P43405). In words: Inhibition of human SYK at 1.82 nM by HotSpot assay relative to control.
The target in experiment [10] is RAC-beta serine/threonine-protein kinase (Homo sapiens) (UniProt P31751). In words: Inhibition of human AKT2 at 1.82 nM by HotSpot assay relative to control.
Experiment [11] has as its target Calcium/calmodulin-dependent protein kinase type 1G (Homo sapiens) (UniProt Q96NX5). Nature of the experiment: Inhibition of human CAMK1g at 1.82 nM by HotSpot assay relative to control.

Sequence of RAC-beta serine/threonine-protein kinase (Homo sapiens) (P31751 whole entry): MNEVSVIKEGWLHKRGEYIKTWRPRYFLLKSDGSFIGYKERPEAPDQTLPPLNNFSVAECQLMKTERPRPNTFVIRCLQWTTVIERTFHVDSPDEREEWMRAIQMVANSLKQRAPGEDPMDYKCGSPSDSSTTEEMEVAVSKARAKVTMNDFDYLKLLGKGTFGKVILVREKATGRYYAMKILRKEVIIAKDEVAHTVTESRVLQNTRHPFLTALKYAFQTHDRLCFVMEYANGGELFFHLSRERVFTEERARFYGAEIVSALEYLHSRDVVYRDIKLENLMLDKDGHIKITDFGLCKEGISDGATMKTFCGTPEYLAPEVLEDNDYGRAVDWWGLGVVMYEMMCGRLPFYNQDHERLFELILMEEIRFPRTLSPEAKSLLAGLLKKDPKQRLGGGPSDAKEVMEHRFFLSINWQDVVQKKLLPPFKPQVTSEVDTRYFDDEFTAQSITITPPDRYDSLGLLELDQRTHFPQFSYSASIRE
Sequence of Calcium/calmodulin-dependent protein kinase type 1G (Homo sapiens) (Q96NX5 whole entry): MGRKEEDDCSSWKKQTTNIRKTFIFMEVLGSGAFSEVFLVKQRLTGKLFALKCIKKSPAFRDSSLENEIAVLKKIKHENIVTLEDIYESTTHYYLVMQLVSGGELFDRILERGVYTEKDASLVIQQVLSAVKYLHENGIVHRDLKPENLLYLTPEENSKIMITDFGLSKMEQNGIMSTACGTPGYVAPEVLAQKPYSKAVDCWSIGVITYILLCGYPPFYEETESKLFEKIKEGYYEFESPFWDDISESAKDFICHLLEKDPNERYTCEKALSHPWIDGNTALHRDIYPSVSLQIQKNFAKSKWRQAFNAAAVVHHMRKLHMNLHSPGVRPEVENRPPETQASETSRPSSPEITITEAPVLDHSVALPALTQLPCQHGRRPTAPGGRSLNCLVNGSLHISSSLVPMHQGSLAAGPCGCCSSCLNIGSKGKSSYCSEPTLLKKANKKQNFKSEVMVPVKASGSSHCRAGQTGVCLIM
Sequence of Tyrosine-protein kinase Srms (Homo sapiens) (Q9H3Y6 whole entry): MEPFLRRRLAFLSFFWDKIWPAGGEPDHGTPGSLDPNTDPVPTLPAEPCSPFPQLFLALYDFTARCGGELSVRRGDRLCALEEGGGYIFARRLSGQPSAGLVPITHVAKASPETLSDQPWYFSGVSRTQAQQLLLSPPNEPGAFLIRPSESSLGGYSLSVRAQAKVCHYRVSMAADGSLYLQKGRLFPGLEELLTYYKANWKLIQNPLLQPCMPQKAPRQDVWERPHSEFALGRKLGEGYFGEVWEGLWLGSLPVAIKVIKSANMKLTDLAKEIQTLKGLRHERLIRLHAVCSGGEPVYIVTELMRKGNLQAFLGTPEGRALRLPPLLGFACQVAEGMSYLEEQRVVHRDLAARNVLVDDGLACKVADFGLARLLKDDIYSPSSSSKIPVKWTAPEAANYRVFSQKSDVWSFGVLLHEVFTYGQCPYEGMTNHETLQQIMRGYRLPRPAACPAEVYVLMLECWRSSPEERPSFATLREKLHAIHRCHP
Sequence of Serine/threonine-protein kinase Nek6 (Homo sapiens) (Q9HC98 whole entry, the tested form may be a part): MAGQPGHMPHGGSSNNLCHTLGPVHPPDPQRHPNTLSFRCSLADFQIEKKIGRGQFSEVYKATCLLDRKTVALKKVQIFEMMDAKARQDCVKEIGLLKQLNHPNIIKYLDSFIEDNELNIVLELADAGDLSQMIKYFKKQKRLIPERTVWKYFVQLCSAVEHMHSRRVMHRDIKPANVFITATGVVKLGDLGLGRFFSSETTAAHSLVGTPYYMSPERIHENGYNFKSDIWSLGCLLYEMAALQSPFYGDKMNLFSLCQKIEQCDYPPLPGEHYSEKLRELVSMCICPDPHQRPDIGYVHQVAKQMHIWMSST
Sequence of Serine/threonine-protein kinase 16 (Homo sapiens) (O75716 whole entry): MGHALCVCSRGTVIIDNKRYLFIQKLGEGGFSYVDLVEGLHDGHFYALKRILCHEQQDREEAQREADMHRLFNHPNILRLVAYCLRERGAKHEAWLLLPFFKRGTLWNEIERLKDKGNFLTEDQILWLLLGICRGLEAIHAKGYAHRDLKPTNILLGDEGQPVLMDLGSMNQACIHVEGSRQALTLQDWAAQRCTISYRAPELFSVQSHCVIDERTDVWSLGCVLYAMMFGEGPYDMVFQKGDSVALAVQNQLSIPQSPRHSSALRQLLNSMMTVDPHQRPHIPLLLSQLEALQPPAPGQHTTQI
Sequence of Homeodomain-interacting protein kinase 3 (Homo sapiens) (Q9H422 whole entry, looked up): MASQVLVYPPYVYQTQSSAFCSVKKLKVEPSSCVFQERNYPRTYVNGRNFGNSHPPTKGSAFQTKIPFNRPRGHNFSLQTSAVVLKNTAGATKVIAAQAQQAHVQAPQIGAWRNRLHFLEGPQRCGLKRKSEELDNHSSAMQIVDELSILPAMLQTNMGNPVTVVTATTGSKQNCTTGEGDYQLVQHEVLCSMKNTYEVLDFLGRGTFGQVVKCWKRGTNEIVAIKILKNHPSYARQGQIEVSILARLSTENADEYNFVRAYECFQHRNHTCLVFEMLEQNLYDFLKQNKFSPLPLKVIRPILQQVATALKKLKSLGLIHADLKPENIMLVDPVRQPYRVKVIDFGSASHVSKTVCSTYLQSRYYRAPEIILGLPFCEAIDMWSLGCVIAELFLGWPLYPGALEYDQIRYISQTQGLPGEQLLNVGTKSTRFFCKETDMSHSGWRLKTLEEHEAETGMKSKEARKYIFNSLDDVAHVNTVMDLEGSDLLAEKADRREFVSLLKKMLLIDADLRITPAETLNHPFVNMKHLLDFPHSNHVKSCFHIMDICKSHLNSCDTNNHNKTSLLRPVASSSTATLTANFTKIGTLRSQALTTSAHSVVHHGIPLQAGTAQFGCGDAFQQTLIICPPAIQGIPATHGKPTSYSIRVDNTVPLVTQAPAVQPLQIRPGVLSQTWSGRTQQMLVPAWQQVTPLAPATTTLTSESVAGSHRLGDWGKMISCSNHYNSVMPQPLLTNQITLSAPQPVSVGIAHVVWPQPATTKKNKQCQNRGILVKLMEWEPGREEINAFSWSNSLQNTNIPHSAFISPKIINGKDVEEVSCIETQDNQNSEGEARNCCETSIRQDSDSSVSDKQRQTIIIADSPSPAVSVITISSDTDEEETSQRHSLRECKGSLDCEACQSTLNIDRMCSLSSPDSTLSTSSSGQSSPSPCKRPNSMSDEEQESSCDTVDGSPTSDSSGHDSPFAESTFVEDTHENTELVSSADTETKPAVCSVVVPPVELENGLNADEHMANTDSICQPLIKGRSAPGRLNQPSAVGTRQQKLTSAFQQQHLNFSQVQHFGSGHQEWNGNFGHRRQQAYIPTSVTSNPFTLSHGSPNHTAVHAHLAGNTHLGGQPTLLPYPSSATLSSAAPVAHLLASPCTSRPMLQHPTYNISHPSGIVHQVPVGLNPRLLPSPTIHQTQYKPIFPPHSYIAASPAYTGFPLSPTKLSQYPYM

Take `C[C@]1(O)C[C@@H](c2nc(-c3ccc4ccc(-c5ccccc5)nc4c3)c3c(N)nccn32)C1`: the inhibition (commonly the relative decrease from the control value, in per cent) in experiment [1] is -2.4%; in [2] it was -4.68%; in [3] it was 7.82%; in [4], -0.53%; in experiment [5], -5.3%.

With `C[C@@]1(C(=O)Nc2ccc(F)nc2)CCCN1c1nc(Nc2cc(C3CC3)n[nH]2)c2cccn2n1`, the inhibition in experiment [6] was 5.33%; in experiment [7], -7.91%; in the experiment listed under Homo sapiens, 1.46%; in [8], -1.36%; in [9] it was -1.25%; in [10], -0.4%. Further, the inhibition in experiment [11] turned out to be 7.27%.
